In series [1] the target is T1, Human factor XIa (hfXIa) (Homo sapiens, UniProt P03951). The conditions noted are these: highest concentration tested (10 μM), Heinis et al. 2009; cited from earlier work.
The target in series [2] is monkey plasma kallikrein (mPK) (Macaca mulatta, UniProt A0A1D5Q7U7). Nature of the series: Inhibition of monkey plasma kallikrein.
Series [3] can be described thus: Rapid plasma stability profiling, method 1 (MALDI-TOF), rat plasma. The class given is in vitro ADME. The conditions noted are these: 35% rat plasma, 37 deg C, method 1, qualitative; listed as N-methylation of Arg5. The method, then:
A rapid plasma stability profiling assay was developed that employed mass spectrometric detection (MALDI-TOF, Voyager DE, Applied Biosystems) of the parent mass, until the time when the parent peptide mass was no longer observable. Specifically, 200 uM of peptide was incubated in the presence of 35% rat or human plasma (Sera labs, using citrate as anticoagulant) at 37 deg C, which was supplemented with 1×PBS (derived from a 10×PBS Stock, Sigma). At various time points (i.e. t=0, 3, 24 hrs, henceafter daily up to 10 days), 2 uL of sample was added to 18 uL of 30 mM ammonium bicarbonate in a 1:1 mixture of acetonitrile:H2O. Samples were frozen at −80 deg C until the time of analysis. For mass spectrometric analysis that determines the approximate detection window of the peptide, the acetonitrile:H2O-diluted sample of a given time point was spotted directly (0.7 uL) onto the MALDI plate. Matrix (alpha-cyanocinnamic acid, Sigma, prepared as a saturated solution in 1:1 acetonitrile:water containing 0.1% trifluoroacetic acid) was layered over the sample (1 uL). At a similar laser intensity setting on the MALDI TOF, the time could then be determined until parent peptide was no longer detectable. It should be noted that this is a qualitative assay serves to detect relative changes in plasma stability.

The target in series [4] is human plasma kallikrein (hPK) (Homo sapiens, UniProt P03952). The series can be described thus: Enzyme inhibition assay, human plasma kallikrein.
Series [5] in a line: Quantitative plasma stability, method 3 (LC/MS), rat plasma. The class given is in vitro ADME. The conditions noted are these: determined quantitatively by LC/MS, read-out: rat plasma halflife (converted). On the procedure:
To obtain plasma stability quantitatively, peptide stock solutions (1 mM in DMSO) were shipped to Biofocus, UK, who performed the analysis. Peptides were diluted to 100 uM with water, and diluted 1:20 in plasma (5 uM final concentration, with the plasma at 95%), sampled as appropriate, precipitated as above, and quantified using a Waters Xevo TQ-MS.

Series [6] addresses rat plasma kallikrein (rPK) (Rattus norvegicus, UniProt P14272). The series can be described thus: Enzyme inhibition assay, rat plasma kallikrein.
Series [7] addresses T1, Human factor XIa (hfXIa). The series can be described thus: Inhibition of paralogous protease factor XIa. The class given is biochemical. The settings on record: highest concentration tested (100 μM). On the procedure: (§1) The target specificity of the isolated bicyclic peptide inhibitors was assessed by determining the inhibition of trypsin-like human serine proteases of the class S1A which comprises 79 members (Yousef, et al, Biochem Biophys Res Commun 2003, 305 (1), 28-36). The panel of proteases included hfXIa which shares the highest sequence identity with hPK (69%) as well as the structurally less related but vital human serine proteases thrombin (36%), plasmin (34% sequence identity with hPK) and factor XIIa (35%).

The next series deals with Human thrombin (Homo sapiens, UniProt P00734). The series can be described thus: Inhibition of paralogous protease thrombin. It is filed as biochemical. On the procedure:
as §1

The next series has as its target Human plasmin (Homo sapiens, UniProt P00747). Nature of the series: Inhibition of paralogous protease plasmin. The class given is biochemical. The settings on record: highest concentration tested (100 μM). On the procedure:
as §1

Series [8] deals with T2, Human factor XIIa (hfXIIa) (Homo sapiens, UniProt P00748).
T2 sequence (P00748 373-615 limits assumed): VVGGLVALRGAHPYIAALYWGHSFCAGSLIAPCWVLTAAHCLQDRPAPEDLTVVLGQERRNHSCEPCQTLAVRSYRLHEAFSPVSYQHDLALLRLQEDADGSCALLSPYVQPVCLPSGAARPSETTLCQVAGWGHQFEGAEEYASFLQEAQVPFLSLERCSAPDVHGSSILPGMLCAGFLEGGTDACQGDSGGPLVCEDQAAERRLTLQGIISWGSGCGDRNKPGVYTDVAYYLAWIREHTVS
The series can be described thus: Inhibition of paralogous protease factor XIIa. The class given is biochemical. On the procedure:
as §1

The mark [9] stands for this setting: highest concentration tested (100 μM).

Numbered stars: 1 amine (or outer) side, 2 acyl side, 3 side chain; on linkers, the order of the positions; unused ones are H or OH. Bridge positions count the residues as written; N and C are the ends. Peptide text beside a SMILES is read from it. TBMB = c1c(C[*:1])cc(C[*:3])cc1C[*:2]

Chain of rat plasma kallikrein (rPK) (P14272 391-638 limits assumed): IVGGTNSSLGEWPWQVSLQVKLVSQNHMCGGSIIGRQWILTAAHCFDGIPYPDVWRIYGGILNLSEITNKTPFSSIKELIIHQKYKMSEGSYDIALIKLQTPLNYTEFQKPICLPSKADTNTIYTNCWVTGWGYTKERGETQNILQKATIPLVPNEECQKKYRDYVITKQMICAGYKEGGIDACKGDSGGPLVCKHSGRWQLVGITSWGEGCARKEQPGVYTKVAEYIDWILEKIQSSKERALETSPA
T1 sequence (P03951 388-625 limits assumed): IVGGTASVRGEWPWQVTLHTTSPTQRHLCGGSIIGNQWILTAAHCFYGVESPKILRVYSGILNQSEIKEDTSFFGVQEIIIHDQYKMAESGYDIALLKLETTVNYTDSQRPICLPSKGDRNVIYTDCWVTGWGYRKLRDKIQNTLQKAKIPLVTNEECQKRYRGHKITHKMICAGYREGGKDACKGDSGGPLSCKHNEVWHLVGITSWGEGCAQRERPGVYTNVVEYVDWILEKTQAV
T1 sequence (P03951 19-387 partner limits assumed): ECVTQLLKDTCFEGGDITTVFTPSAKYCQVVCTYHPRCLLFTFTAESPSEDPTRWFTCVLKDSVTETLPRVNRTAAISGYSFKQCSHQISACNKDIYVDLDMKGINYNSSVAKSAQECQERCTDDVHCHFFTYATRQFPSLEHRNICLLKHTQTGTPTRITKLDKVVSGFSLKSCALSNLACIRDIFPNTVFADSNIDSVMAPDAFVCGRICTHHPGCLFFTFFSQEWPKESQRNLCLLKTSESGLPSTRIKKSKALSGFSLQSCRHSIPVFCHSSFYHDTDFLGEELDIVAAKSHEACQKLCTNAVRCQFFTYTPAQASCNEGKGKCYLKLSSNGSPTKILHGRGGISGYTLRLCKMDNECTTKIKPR
Chain of monkey plasma kallikrein (mPK) (A0A1D5Q7U7 391-638): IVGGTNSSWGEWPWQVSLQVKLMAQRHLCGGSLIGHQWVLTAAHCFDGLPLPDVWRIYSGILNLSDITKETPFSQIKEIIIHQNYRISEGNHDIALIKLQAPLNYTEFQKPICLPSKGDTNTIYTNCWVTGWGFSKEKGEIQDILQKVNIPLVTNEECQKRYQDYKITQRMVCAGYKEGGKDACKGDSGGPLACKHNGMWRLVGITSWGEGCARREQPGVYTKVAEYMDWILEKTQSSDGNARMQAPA
Chain of Human plasmin (P00747 581-810 limits assumed): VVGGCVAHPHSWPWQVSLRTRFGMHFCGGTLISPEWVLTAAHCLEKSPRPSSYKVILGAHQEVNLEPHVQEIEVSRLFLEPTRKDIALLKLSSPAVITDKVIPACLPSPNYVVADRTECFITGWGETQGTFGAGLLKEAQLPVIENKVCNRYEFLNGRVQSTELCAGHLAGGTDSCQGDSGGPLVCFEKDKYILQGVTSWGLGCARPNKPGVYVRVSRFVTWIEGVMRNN
Chain of Human plasmin (P00747 97-580 partner limits assumed): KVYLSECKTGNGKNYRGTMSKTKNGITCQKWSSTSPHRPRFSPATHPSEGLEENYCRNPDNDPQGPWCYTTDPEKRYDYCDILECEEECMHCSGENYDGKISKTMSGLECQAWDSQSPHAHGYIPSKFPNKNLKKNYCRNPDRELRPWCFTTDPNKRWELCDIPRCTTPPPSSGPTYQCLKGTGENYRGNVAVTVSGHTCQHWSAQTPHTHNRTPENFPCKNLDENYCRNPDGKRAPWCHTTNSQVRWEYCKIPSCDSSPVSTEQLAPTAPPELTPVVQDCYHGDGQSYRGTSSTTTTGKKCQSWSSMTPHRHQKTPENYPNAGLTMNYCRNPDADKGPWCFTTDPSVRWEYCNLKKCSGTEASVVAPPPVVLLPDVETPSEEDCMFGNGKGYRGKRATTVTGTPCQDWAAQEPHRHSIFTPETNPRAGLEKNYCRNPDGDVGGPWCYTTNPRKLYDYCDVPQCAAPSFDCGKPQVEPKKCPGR

The term Ki denotes a measure of affinity in units of concentration, obtained from inhibition or displacement. With `CC(C)C[C@@H]1NC(=O)[C@H](C)NC(=O)[C@H](CCC(=O)O)NC(=O)[C@H](CC(=O)O)NC(=O)[C@H](C)NC(=O)[C@@H]2CCCN2C(=O)[C@@H]2CSCc3cc(cc(c3)CSC[C@@H](C(=O)NCC(N)=O)NC1=O)CSC[C@H](NC(=O)[C@H](C)N)C(=O)N[C@@H](CO)C(=O)N[C@@H](CC(=O)O)C(=O)N[C@@H](CCCNC(=N)N)C(=O)N[C@@H](Cc1ccccc1)C(=O)N[C@@H](CCCNC(=N)N)C(=O)N[C@@H](CC(N)=O)C(=O)N2` [PK15] (H-ACSDRFRNCPADEALCG-NH2; linker 2-9-16 via TBMB), the “inhibition of factor XIa (hfXIa)” value at Human factor XIa (hfXIa) [1] is “did not inhibit”. In series [2], the Ki was found to be 2.9 nM.
In the case of `CC(=O)N[C@H]1CSCc2cc3cc(c2)CSC[C@H](NC(=O)[C@H](CCCNC(=N)N)N(C)C(=O)[C@H](C)NC(=O)[C@@H]2CCCN2C(=O)[C@H](Cc2c[nH]c4ccccc24)NC(=O)[C@H](CO)NC1=O)C(=O)N[C@@H](CC(C)C)C(=O)N[C@@H](Cc1c[nH]cn1)C(=O)N[C@@H](CCC(N)=O)C(=O)N[C@@H](CC(=O)O)C(=O)N[C@@H](CC(C)C)C(=O)N[C@H](C(N)=O)CSC3` [Ac-(06-34-18) NMeArg5], in series [3], the “Observable in rat plasma, for days” value is on record as “exceeds the assay time”. In addition, the Ki in series [4] came to 3.5 nM. Also, in series [4] (versus Ac-06-34-18(TMB)-NH2), the “fold reduction in affinity to kallikrein compared to wildtype peptide” value turned out to be 20 fold.
The IC50 is the midpoint of a concentration-inhibition curve. As for `CC(=O)N[C@H]1CSCc2cc3cc(c2)CSC[C@H](NC(=O)[C@H](CCCNC(=N)N)NC(=O)[C@H](C)NC(=O)[C@@H]2CCCN2C(=O)[C@H](Cc2c[nH]c4ccccc24)NC(=O)[C@H](CO)NC1=O)C(=O)N[C@@H](CC(C)C)C(=O)N[C@@H](Cc1c[nH]cn1)C(=O)N[C@@H](CCC(N)=O)C(=O)N[C@@H](CC(=O)O)C(=O)N[C@@H](CC(C)C)C(=O)N[C@H](C(N)=O)CSC3` [Ac-(06-34-18) wildtype], in series [5], the half-life at 5 uM is ~2 h. The compound also came in with an IC50 in [6] of 1.7 nM. For the same compound, the Ki in [4] stood at 0.17 nM.
As for `C[C@H](N)C(=O)N[C@H]1CSCc2cc3cc(c2)CSC[C@H](NC(=O)[C@H](CCCNC(=N)N)NC(=O)[C@H](C)NC(=O)[C@@H]2CCCN2C(=O)[C@H](Cc2c[nH]c4ccccc24)NC(=O)[C@H](CCCNC(=N)N)NC1=O)C(=O)N[C@@H]([C@@H](C)O)C(=O)N[C@@H](Cc1c[nH]cn1)C(=O)N[C@@H](CCC(N)=O)C(=O)N[C@@H](CC(N)=O)C(=O)N[C@@H](Cc1ccc(O)cc1)C(=O)N[C@H](C(=O)N[C@@H](C)C(N)=O)CSC3` [Peptide 06-54] (H-ACRWPARCTHQNYCA-NH2; linker 2-8-14 via TBMB), the “inhibition of hfXIa” value against Human factor XIa (hfXIa) [7] is listed as “did not inhibit”. The IC50 (against Human thrombin; in series [8]) was > 10000 nM throughout. The inhibition of thrombin result at Human thrombin (setting [9]) is “did not inhibit”. In addition, at Human plasmin, the inhibition of plasmin result is “did not inhibit”. The “inhibition of factor XIIa” value in series [8] (setting [9]) is listed as “did not inhibit”. Besides, the Ki in series [6] came out at 7 nM; in series [4], 0.49 nM.

Values taken from patent US9994617B2, “Modulation of structured polypeptide specificity” (BICYCLE THERAPEUTICS LIMITED, priority 2011, dated 2018).
